Results as given in patent US20250169496A1, “USE OF 2-AMINO-3-HYDROXY-3-METHYLBUTYRIC ACID AND/OR 2-AMINO-3-(4-HYDROXYPHENYL) BUTYRIC ACID” (NANJING TIANNONG BIOTECHNOLOGY CO., LTD., priority 2021, published 2025).
Several values for one entry are separate records, joined by “and”; a condition that tells them apart may be missing. Equal entries are not always repeated.

Key:
cotton under salt stress = assay: Hydroponic cotton under salt stress (100 mM NaCl); assay type: in vivo, cotton (Si Kang 1#); conditions: 100 mM NaCl for three days
Experimental: The experimental material is “Si Kang 1#” cotton. Use 500 mL plastic cups for hydroponic culture and replace the ½Hoagland nutrient solution once every two days. Spray a 2-amino-3-hydroxy-3-methylbutyric acid solution on the leaf surface when the cotton seedlings grow until the second true leaf is fully open, set the concentrations at 0, 1, 10, 100 and 1,000 nM in the experiment, and add 0.02% Tween 20 as a surfactant. Spray once every 24 h, twice in total, add NaCl to the ½Hoagland nutrient solution on the second day after treatment to make its final concentration be 100 mM, and conduct salt stress treatment. Repeat each treatment three times. Rewater after three days of salt stress, observe the salt damage symptoms of cotton, and calculate the salt damage index by the following formula: […]

[1] = tested on: tomato spotted wilt virus (TSWV); assay: Induced resistance of tobacco to infection of tomato spotted wilt virus; assay type: in vivo, Nicotiana benthamiana; conditions: for Viral protein content: tobacco leaves 3 d after inoculation, Western blot grayscale, relative
Experimental: Obtain the tomato spotted wilt virus from Yunnan Province, China, store the initial virus source in a −80° C. refrigerator, activate the virus by inoculating it by friction inoculation on Nicotiana benthamiana leaves, extract viral plasmids, transform them by Escherichia coli competent cells, spread them onto a resistant plate for culture, pick a single colony for PCR screening, select positive colonies for sequencing and subsequent plasmid extraction, add the plasmids with normal sequencing to agrobacterium competent cells, transform the agrobacterium by the electric shock method, spread the transformed agrobacterium solution on the corresponding resistance screening plate, and culture it at 28° C.(±1) for 48 h. Pick a single agrobacterium colony on the transformation plate, place it in 5 mL of LB medium with the corresponding resistance and culture it at 28° C. and 180 rpm overnight. Centrifuge at 6,000 rpm for 2 min, collect the bacteria, suspend the bacteria with a treatment buffer (10 mM MgCl2, 10 mM MES, 10 μM Acetosyringone) until the OD600 of the suspension is 0.5, treat it at 28° C. in a dark place for 3 h and keep it for future use.
Take 2-amino-3-hydroxy-3-methylbutyric acid, dissolve it with distilled water, then dilute the solution with distilled water by gradient into 0 nM, 0.1 nM, 1 nM and 10 nM solutions. Sow Nicotiana benthamiana seeds in a small pot, and culture them at 24(±1)° C., 12 h/12 h illumination for 5 weeks. Select healthy tobacco plants (plants with 8-10 leaves are appropriate), spray 2-amino-3-hydroxy-3-methylbutyric acid solutions at the above concentrations on leaves and stems twice at an interval of 24 h. After 24 hours, suck an agrobacterium solution at a uniform concentration with a 1 mL syringe, press the injection port of the syringe directly on a small hole on the back of a tobacco leaf, and slowly push the bacterial solution into the hole so that the whole leaf is soaked. Culture the soaked tobacco at 24(±1)° C. 12 h/12 h illumination. Observe under a microscope after 3 d and make record; meanwhile, take a sample, analyze the grayscale of protein bands by using Western blot and Image J software, and determine the relative protein content of virus in leaves. Observe the morbidity of the tobacco leaves after 15 days, record the disease index with reference to GB/T 23222-2008 Grade and Investigation Method of Tobacco Diseases and Insect Pests. The formula is as follows: […]
Grading standard of tomato spotted wilt viruses (grading survey with plant as a unit): • Level 0: No disease in the whole plant; • Level 1: The shoot and leaf veins are clear or the leaves are slightly mottled, and the diseased plant is not dwarfed obviously; • Level 3: One third of the leaves are mottled, but the leaves are not deformed, or the plant is dwarfed to more than three quarters of the normal plant height; • Level 5: One third to a half of the leaves are mottled, or a minority of leaves are deformed, or the main veins turn black, or the plant is dwarfed to two thirds to three quarters of the normal plant height; • Level 7: A half to two thirds of the leaves are mottled, or deformed or a minority of major lateral veins are dead, or the plant is dwarfed to a half to two thirds of the normal plant height; • Level 9: The leaves of the whole plant are mottled, or seriously deformed or dead, or the diseased plant is dwarfed to […] of the normal plant height.

wheat powdery mildew = assay: Field test of induced resistance of wheat to powdery mildew; assay type: in vivo; conditions: 1,000 nM; for Thousand kernel weight: dried harvested wheat seeds; for Relative immune effect: vs additive control
Experimental: Spraya 2-amino-3-hydroxy-3-methylbutyric acid solution (surfactant Tween 20 (0.02% (v/v) is added) at a concentration of 1,000 nM on stems and leaves in the field of Jiangsu Academy of Agricultural Sciences, use surfactant Tween 20 with a spray volume percent of 0.02% as an additive control, Atailing with 30 g sprayed per mu as a positive control, and repeat each treatment for three times. Investigate the wheat morbidity level of each treatment, record the morbidity level according to the wheat powdery mildew grading standard in the Pesticide—Guidelines for the Field Efficacy Trials(I) and calculate the disease index and relative immune effect by the calculation method same as that for the disease index and relative immune effect of tomato spotted wilt. After drying of the harvested wheat seeds, determine the thousand kernel weight of the wheat seeds under different treatments. The wheat powdery mildew grading standard (with leaf as a unit): • Level 1: The area of the disease spots accounts for less than 5% of the whole leaf area; • Level 3: The area of the disease spots accounts for 6%-15% of the whole leaf area; • Level 5: The area of the disease spots accounts for 16%-25% of the whole leaf area; • Level 7: The area of the disease spots accounts for 26%-50% of the whole leaf area; • Level 9: The area of the disease spots accounts for more than 50% of the whole leaf area.

[2] = 0.1 nM sprayed twice, tobacco 15 days after TSWV inoculation
[3] = 1 nM sprayed twice, tobacco 15 days after TSWV inoculation
[4] = concentration range 0.1-10 nM, tobacco, TSWV

With `CC(c1ccc(O)cc1)C(N)C(=O)O` (centres unmarked) [2-amino-3-(4-hydroxyphenyl) butyric acid] the Death rate (cotton under salt stress; 1 nM) was 48%, the Salt damage index (cotton under salt stress; 1 nM) was 64% and the Death rate (cotton under salt stress; 10 nM) was 45%. The Salt damage index (cotton under salt stress; 10 nM) was 56%, the Death rate (cotton under salt stress; 100 nM) was 30% and the Salt damage index (cotton under salt stress; 100 nM) was 52%. It also gave a Death rate (cotton under salt stress; 1,000 nM) of 29%, a Salt damage index (cotton under salt stress; 1,000 nM) of 43% and a Disease index [1, 2] of 36.62 ± 0.87 b. For the same compound, the Viral protein content ([1]; 0.1 nM) was 0.34 ± 0.004 b, the Relative immune effect ([1]; 0.1 nM, tobacco, TSWV) was 52.54% and the Disease index [1, 3] was 29.83 ± 2.31 c. The Viral protein content ([1]; 1 nM) was 0.28 ± 0.012 c, the Relative immune effect ([1]; 1 nM, tobacco, TSWV) was 61.34% and the Relative immune effect ([1]; 10 nM, tobacco, TSWV) was 67.24%. For the same compound, the Disease index [1, 4] was “lower than 50”, the Relative immune effect [1, 4] was “more than 50%” and the Thousand kernel weight (wheat powdery mildew) was 37.92 g and 37.92 ± 0.21 a g. It also gave a Relative immune effect (wheat powdery mildew) of 47.28%.

`CC(C)(O)C(N)C(=O)O` (centres unmarked) [2-amino-3-hydroxy-3-methylbutyric acid] gave a Death rate (cotton under salt stress; 1 nM) of 51%, a Salt damage index (cotton under salt stress; 1 nM) of 66% and a Death rate (cotton under salt stress; 10 nM) of 47%. For the same compound, the Salt damage index (cotton under salt stress; 10 nM) was 58%, the Death rate (cotton under salt stress; 100 nM) was 34% and the Salt damage index (cotton under salt stress; 100 nM) was 54%. The Death rate (cotton under salt stress; 1,000 nM) was 30%, the Salt damage index (cotton under salt stress; 1,000 nM) was 48% and the Disease index [1, 2] was 58.64 ± 2.31 b. It also gave a Viral protein content ([1]; 0.1 nM) of 0.41 ± 0.029 b, a Relative immune effect ([1]; 0.1 nM, tobacco, TSWV) of 34.48% and a Disease index [1, 3] of 40.74 ± 3.02 c. The Viral protein content ([1]; 1 nM) was 0.30 ± 0.012 c, the Relative immune effect ([1]; 1 nM, tobacco, TSWV) was 54.48% and the Relative immune effect ([1]; 10 nM, tobacco, TSWV) was 67.59%. The Disease index [1, 4] was “lower than 60”, the Relative immune effect [1, 4] was “more than 30%” and the Thousand kernel weight (wheat powdery mildew) was 32.61 g and 32.61 ± 0.18 a g. It also gave a Relative immune effect (wheat powdery mildew) of 38.74%.
